Source: patent publication US20070049564A1 (Wyeth, priority 2005, published 2007)
≈ marks a conversion by molar mass, not a printed value. Read-outs that look alike come from different tables or passages of the source.

What was measured:
E. coli GC 2270 = assay: MIC, broth microdilution; details: Escherichia coli, GC2270, E. coli GC 2270
E. faecalis GC 2242 = assay: MIC, broth microdilution; details: Enterococcus faecalis, GC2242, E. faecalis GC 2242
E. faecium GC 4556 = assay: MIC, broth microdilution; details: Enterococcus faecium, GC4556, E. faecium GC 4556
S. agalactiae GC 4564 = assay: MIC, broth microdilution; details: Streptococcus agalactiae, GC4564, S. agalactiae GC 4564
S. aureus GC 6335 = assay: MIC, broth microdilution; details: Staphylococcus aureus, GC6335, S. aureus GC 6335
E. coli GC 2232 = assay: MIC, broth microdilution; details: Escherichia coli, GC2232, E. coli GC 2232
E. coli GC 4559 = assay: MIC, broth microdilution; details: Escherichia coli, GC4559, E. coli GC 4559
E. coli GC 2271 = assay: MIC, broth microdilution; details: Escherichia coli, GC2271, E. coli GC 2271
S. typhimurium GC 2172 = assay: MIC, broth microdilution; details: Salmonella enterica, TYPHIMURIUM, S. typhimurium GC 2172
P. aeruginosa GC 2214 = assay: MIC, broth microdilution; details: Pseudomonas aeruginosa, GC2214, P. aeruginosa GC 2214
E. coli GC 3226 = assay: MIC, broth microdilution; details: Escherichia coli, GC3226, E. coli GC 3226
Method: (§1) Antimicrobial susceptibility testing. The in vitro activities of the antibiotics are determined by the broth microdilution method as recommended by the National Committee for Clinical Laboratory Standards (NCCLS) (1). Mueller-Hinton II broth (MHBII)(BBL Cockeysville, Md.) is the medium employed in the testing procedures. Microtiter plates containing serial dilutions of each antimicrobial agent are inoculated with each organism to yield the appropriate density (10^5 CFU/ml) in a 100 μl final volume. The plates are incubated for 18-22 hours at 35° C. in ambient air.
(§2) Representative compounds were first incubated in mouse serum for an hour prior to the in vitro testing against a panel of selected gram-positive and gram-negative bacteria strains. All compounds were also pre-incubated in water for an hour prior to testing as control. Representative compounds of Formula I were incubated in human serum prior to MIC determination.

E. faecalis GC 2267 = assay: MIC, broth microdilution; details: Enterococcus faecalis, GC2267, E. faecalis GC 2267
S. pneumoniae* GC 4465 = assay: MIC, broth microdilution; details: Streptococcus pneumoniae, S. pneumoniae* GC 4465
E. coli GC 2203 = assay: MIC, broth microdilution; details: Escherichia coli, GC2203, E. coli GC 2203
S. aureus GC 2216 = assay: MIC, broth microdilution; details: Staphylococcus aureus, GC2216, S. aureus GC 2216
Method: Antimicrobial susceptibility testing. The in vitro activities of the antibiotics are determined by the broth microdilution method as recommended by the National Committee for Clinical Laboratory Standards (NCCLS) (1). Mueller-Hinton II broth (MHBII)(BBL Cockeysville, Md.) is the medium employed in the testing procedures. Microtiter plates containing serial dilutions of each antimicrobial agent are inoculated with each organism to yield the appropriate density (10^5 CFU/ml) in a 100 μl final volume. The plates are incubated for 18-22 hours at 35° C. in ambient air. […] Standard Pharmacological Test Procedures
Presented in Tables I-XIII are representative compounds of Formula I which were evaluated against a panel of 40 selected gram-positive and gram-negative bacteria strains by pre-incubation in water, mouse serum or human serum. Representative compounds were first incubated in mouse serum for an hour prior to the in vitro testing against a panel of selected gram-positive and gram-negative bacteria strains. All compounds were also pre-incubated in water for an hour prior to testing as control. Representative compounds of Formula I were incubated in human serum prior to MIC determination.

Staph. aureus Smith = assay: In vivo activity (oral, iv; ED50) against Staph. aureus Smith in mice
Method: Representative examples of compounds of Formula I were tested for the oral efficacy using S. aureus Smith in mice.

E. coli GC 2231 = assay: MIC, broth microdilution; details: Escherichia coli, GC2231, E. coli GC 2231
E. coli GC 2235 = assay: MIC, broth microdilution; details: Escherichia coli, GC2235, E. coli GC 2235
S. aureus GC 6467 = assay: MIC, broth microdilution; details: Staphylococcus aureus, GC6467, S. aureus GC 6467
E. coli GC 4560 = assay: MIC, broth microdilution; details: Escherichia coli, GC4560, E. coli GC 4560
Method: as §1, §2

[1] = Staphylococcus aureus, in Mus musculus, po, read-out: ED50 Staph Smith SOD
[2] = iv, read-out: ED50 Staph Smith SIV

Row | Structure (SMILES) | MIC (E. coli GC 2270; Mouse Serum pre-incubation) [µg/mL] | MIC (E. coli GC 2270; Water pre-incubation) [µg/mL] | MIC (E. faecalis GC 2242; Mouse Serum pre-incubation) [µg/mL] | MIC (E. faecalis GC 2242; Water pre-incubation) [µg/mL] | MIC (E. faecium GC 4556; Mouse Serum pre-incubation) [µg/mL] | MIC (E. faecium GC 4556; Water pre-incubation) [µg/mL] | MIC (S. agalactiae GC 4564; Mouse Serum pre-incubation) [µg/mL] | MIC (S. agalactiae GC 4564; Water pre-incubation) [µg/mL] | MIC (S. aureus GC 6335; Mouse Serum pre-incubation) [µg/mL] | MIC (S. aureus GC 6335; Water pre-incubation) [µg/mL] | MIC (E. coli GC 2232; Mouse Serum pre-incubation) [µg/mL] | MIC (E. coli GC 2232; Water pre-incubation) [µg/mL] | MIC (E. coli GC 4559; Mouse Serum pre-incubation) [µg/mL] | MIC (E. coli GC 4559; Water pre-incubation) [µg/mL] | MIC (E. coli GC 2271; Mouse Serum pre-incubation) [µg/mL] | MIC (E. coli GC 2271; Water pre-incubation) [µg/mL] | MIC (S. typhimurium GC 2172; Mouse Serum pre-incubation) [µg/mL] | MIC (S. typhimurium GC 2172; Water pre-incubation) [µg/mL] | MIC (P. aeruginosa GC 2214; Mouse Serum pre-incubation) [µg/mL] | MIC (P. aeruginosa GC 2214; Water pre-incubation) [µg/mL] | other results
1 | CCCN(CC(=O)Nc1cc(N(C)C)c2c(c1O)C(=O)C1=C(O)[C@]3(O)C(=O)C(C(N)=O)=C(O)[C@@H](N(C)C)[C@@H]3C[C@@H]1C2)C(=O)OCOC(=O)C1CCC1 [Example 7, ({[(2-{[(5aR,6aS,7S,10aS)-9-(aminocarbonyl)-4,7-bis(dimethylamino)-1,8,10a,11-tetrahydroxy-10,12-dioxo-5,5a,6,6a,7,10,10a,12-octahydrotetracen-2-yl]amino}-2-oxoethyl)(propyl)amino]carbonyl}oxy)methyl cyclobutanecarboxylate] | 0.5 (≈ 0.687 µM) | 4 (≈ 5.5 µM) | 1 (≈ 1.37 µM) | 1 (≈ 1.37 µM) | 0.5 (≈ 0.687 µM) | 1 (≈ 1.37 µM) | 0.25 (≈ 0.344 µM) | 0.5 (≈ 0.687 µM) | 1 (≈ 1.37 µM) | 1 (≈ 1.37 µM) | 0.5 (≈ 0.687 µM) | 4 (≈ 5.5 µM) | 1 (≈ 1.37 µM) | 8 (≈ 11 µM) | 0.5 (≈ 0.687 µM) | 4 (≈ 5.5 µM) | 4 (≈ 5.5 µM) | > 64 | 16 (≈ 22 µM) | > 64 | MIC (E. coli GC 3226; Mouse Serum pre-incubation): 0.5 µg/mL (≈ 0.687 µM); MIC (E. coli GC 3226; Water pre-incubation): 8 µg/mL (≈ 11 µM); MIC (E. faecalis GC 2267; Mouse Serum pre-incubation): 1 µg/mL (≈ 1.37 µM); MIC (E. faecalis GC 2267; Water pre-incubation): 2 µg/mL (≈ 2.75 µM); MIC (S. pneumoniae* GC 4465; Mouse Serum pre-incubation): 0.25 µg/mL (≈ 0.344 µM); MIC (S. pneumoniae* GC 4465; Water pre-incubation): 0.12 µg/mL (≈ 0.165 µM); MIC (E. coli GC 2203; Mouse Serum pre-incubation): 0.5 µg/mL (≈ 0.687 µM); MIC (E. coli GC 2203; Water pre-incubation): 4 µg/mL (≈ 5.5 µM); MIC (S. aureus GC 2216; Mouse Serum pre-incubation): 0.5 µg/mL (≈ 0.687 µM); MIC (S. aureus GC 2216; Water pre-incubation): 0.5 µg/mL (≈ 0.687 µM); ED50 (Staph. aureus Smith; [1]): 16.1 mg/kg; ED50 (Staph. aureus Smith; [2]): 0.52 mg/kg; MIC (E. coli GC 2231; Mouse Serum pre-incubation): 2 µg/mL (≈ 2.75 µM); MIC (E. coli GC 2231; Water pre-incubation): 16 µg/mL (≈ 22 µM); MIC (E. coli GC 2235; Mouse Serum pre-incubation): 0.5 µg/mL (≈ 0.687 µM); MIC (E. coli GC 2235; Water pre-incubation): 4 µg/mL (≈ 5.5 µM); MIC (S. aureus GC 6467; Mouse Serum pre-incubation): 4 µg/mL (≈ 5.5 µM); MIC (S. aureus GC 6467; Water pre-incubation): 4 µg/mL (≈ 5.5 µM); MIC (E. coli GC 4560; Mouse Serum pre-incubation): 0.25 µg/mL (≈ 0.344 µM); MIC (E. coli GC 4560; Water pre-incubation): 0.5 µg/mL (≈ 0.687 µM)
2 | CCCN(CC(=O)Nc1cc(N(C)C)c2c(c1O)C(=O)C1=C(O)[C@]3(O)C(=O)C(C(N)=O)=C(O)[C@@H](N(C)C)[C@@H]3C[C@@H]1C2)C(=O)OCOC(=O)c1ccc(F)cc1 [Example 8, ({[(2-{[(5aR,6aS,7S,10aS)-9-(aminocarbonyl)-4,7-bis(dimethylamino)-1,8,10a,11-tetrahydroxy-10,12-dioxo-5,5a,6,6a,7,10,10a,12-octahydrotetracen-2-yl]amino}-2-oxoethyl)(propyl)amino]carbonyl}oxy)methyl 4-fluorobenzoate] | 1 (≈ 1.3 µM) | 64 (≈ 83.4 µM) | 1 (≈ 1.3 µM) | 4 (≈ 5.21 µM) | 1 (≈ 1.3 µM) | 4 (≈ 5.21 µM) | 0.25 (≈ 0.326 µM) | 0.5 (≈ 0.651 µM) | 1 (≈ 1.3 µM) | 4 (≈ 5.21 µM) | 1 (≈ 1.3 µM) | 32 (≈ 41.7 µM) | 1 (≈ 1.3 µM) | 64 (≈ 83.4 µM) | 1 (≈ 1.3 µM) | 32 (≈ 41.7 µM) | 8 (≈ 10.4 µM) | > 64 | 32 (≈ 41.7 µM) | > 64 | MIC (E. coli GC 3226; Mouse Serum pre-incubation): 2 µg/mL (≈ 2.6 µM); MIC (E. coli GC 3226; Water pre-incubation): 64 µg/mL (≈ 83.4 µM); MIC (E. faecalis GC 2267; Mouse Serum pre-incubation): 2 µg/mL (≈ 2.6 µM); MIC (E. faecalis GC 2267; Water pre-incubation): 8 µg/mL (≈ 10.4 µM); MIC (S. pneumoniae* GC 4465; Mouse Serum pre-incubation): < 0.06 µg/mL; MIC (S. pneumoniae* GC 4465; Water pre-incubation): 0.25 µg/mL (≈ 0.326 µM); MIC (E. coli GC 2203; Mouse Serum pre-incubation): 1 µg/mL (≈ 1.3 µM); MIC (E. coli GC 2203; Water pre-incubation): 32 µg/mL (≈ 41.7 µM); MIC (S. aureus GC 2216; Mouse Serum pre-incubation): 0.5 µg/mL (≈ 0.651 µM); MIC (S. aureus GC 2216; Water pre-incubation): 4 µg/mL (≈ 5.21 µM); ED50 (Staph. aureus Smith; [1]): 16.6 mg/kg; ED50 (Staph. aureus Smith; [2]): 0.48 mg/kg; MIC (E. coli GC 2231; Mouse Serum pre-incubation): 2 µg/mL (≈ 2.6 µM); MIC (E. coli GC 2231; Water pre-incubation): > 64 µg/mL; MIC (E. coli GC 2235; Mouse Serum pre-incubation): 1 µg/mL (≈ 1.3 µM); MIC (E. coli GC 2235; Water pre-incubation): 16 µg/mL (≈ 20.8 µM); MIC (S. aureus GC 6467; Mouse Serum pre-incubation): 4 µg/mL (≈ 5.21 µM); MIC (S. aureus GC 6467; Water pre-incubation): 8 µg/mL (≈ 10.4 µM); MIC (E. coli GC 4560; Mouse Serum pre-incubation): 0.5 µg/mL (≈ 0.651 µM); MIC (E. coli GC 4560; Water pre-incubation): 4 µg/mL (≈ 5.21 µM)
